Experimental data published in US9597342B2 (UWM Research Foundation, Inc., priority 2011, dated 2017).

Key:
[1] = In vitro metabolic stability using human liver microsomes
Description: The metabolic stability of 15 GABAA receptor ligands using human liver microsomes was studied. The test articles were incubated at two concentrations (1 and 10 μM) and aliquots (100 μl) were removed at various time points (0, 15, 30 and 60 minutes), and analyzed by LC-MS/MS.
(§1) The test articles were incubated at two concentrations (1 and 10 μM) in 96-well plate format with active or heat-inactivated human liver microsomes and cofactors. Aliquots were removed at 0, 15, 30 and 60 minutes and mixed with acetonitrile containing internal standard for analysis. Samples were extracted and assayed using a liquid chromatography/tandem mass spectrometry (LC-MS/MS) analytical method.
Pooled human liver microsomes (Lot #38289, pool of 150 different male and female donor livers) were obtained from BD Biosciences Corporation (Woburn, Mass.). Microsomes were stored at ˜−135° C. until use.
(§2) The test articles (1 and 10 μM) were incubated with human liver microsomes (0.5 mg protein/ml) and appropriate cofactors (2.5 mM NADPH and 3.3 mM magnesium chloride) in 100 mM phosphate buffer, pH 7.4 (0.1% final DMSO), in a 37° C. water bath. Incubations with all compounds were initiated with the addition of microsomes. At selected time points (0, 15, 30 and 60 min), a single 100 μl aliquot was removed from each sample and mixed with 200 μl of chilled acetonitrile containing internal standard. Following brief vortexing and centrifugation, the samples were further diluted into a 96-well plate for subsequent LC-MS/MS analysis. All samples were assayed in duplicate.
(§3) Experimental controls consisted of: a) incubation of all components except test article for 0 and 60 min, b) incubation of midazolam (positive control) at 10 μM for 0, 15, 30 and 60 min, and c) incubation of 1 and 10 μM test article and 10 μM midazolam with heat-inactivated microsomes (0.5 mg protein/ml) for 0 and 60 min. All controls were assayed in duplicate.
Samples were analyzed by LC-MS/MS in multiple reaction monitoring mode using positive-ion electrospray ionization. The details of the LC-MS/MS method can be provided upon request.
(§4) Data from the metabolic stability assays were transferred to and processed in a Microsoft Excel spreadsheet. To determine metabolic stability, the percent remaining at each time point was calculated by dividing the peak area ratio of test article/internal standard at each time point by the peak area ratio at 0 min multiplied by 100.

[2] = Incubation with heat-inactivated human liver microsomes (stability control); settings: 60 min
Description: as §1, §2, §3, §4

[3] = tested on: rhesus monkeys; experiment: Conflict procedure (anxiolytic and sedating effects) in rhesus monkeys; format: in vivo; settings: i.v., cumulative dosing, data for one monkey (FIG. 14)
Excerpt: Other methods for evaluating compounds are known to those skilled in the art. For example, an assessment of anxiolytic effects of compounds can be accomplished objectively and quantitatively with operant-based conflict procedures, as described in Fischer et al. Neuropharmacology 59 (2010) 612-618. Briefly, behavior which is positively reinforced can be suppressed in these procedures by response-contingent administration of a noxious stimulus such as mild electric shock. […] The strength of conflict procedures is their predictive validity with respect to expected therapeutic effects in humans. Results from the Fischer et al. indicate that benzodiazepine-like drugs that have pharmacological activity for α2GABAA and/or α3GABAA receptors and low receptor activity at α 1GABAA and α5GABAA receptors may be useful, particularly as non-sedating anxiolytics. […]
Test sessions were conducted once or twice per week when monkeys reached stable performance, defined as the average rates of responding for component 1 and component 2 not varying by ±20% over five consecutive sessions, with no upward or downward trends. […] The dependent measure was the average rates of responding (responses/s), calculated by dividing responses by time during components 1 and 2, excluding responding during time outs or reinforcer delivery.

| Compound | Mean % Remaining vs T = 0 min, Human Liver Microsomes ([1]; 1 μM, 15 min) [%] | Mean % Remaining vs T = 0 min, Human Liver Microsomes ([1]; 1 μM, 30 min) [%] | Mean % Remaining vs T = 0 min, Human Liver Microsomes ([1]; 10 μM, 15 min) [%] | Mean % Remaining vs T = 0 min, Human Liver Microsomes ([1]; 10 μM, 30 min) [%] | Mean % Remaining vs T = 0 min, Human Liver Microsomes ([1]; 10 μM, 60 min) [%] | melting point [°C] | Mean % Remaining vs T = 0 min, with HI (Heat Inactivated) Microsomes ([2]; 1 μM) [%] | Mean % Remaining vs T = 0 min, with HI (Heat Inactivated) Microsomes ([2]; 10 μM) [%] | Mean % Remaining vs T = 0 min, Human Liver Microsomes ([1]; 1 μM, 60 min) [%] | anxiolytic effect (suppressed responding) [3] | sedating effect (non-suppressed responding) [3] |
| --- | --- | --- | --- | --- | --- | --- | --- | --- | --- | --- | --- |
| C#Cc1ccc2c(c1)C(c1ccccc1)=NCc1c(C(=O)OCCCOC(=O)c3ncn4c3CN(C)C(=O)c3cc(Cl)ccc3-4)ncn1-2 | 87.3 | 39.4 | 107 | 104 | 82.8 | 179 to 184 | 141 | 114 |  |  |  |
| C#Cc1ccc2c(c1)C(c1ccccc1F)=NCc1c(C(=O)NC)ncn1-2 [HJ-I-037, 8-Ethynyl-N-methyl-6-(2-fluorophenyl)-4H-benzo[f]imidazo[1,5-a][1,4]diazepine-3-carboxamide] | 97.7 | 99.5 | 96.8 | 103 | 103 | 235 to 236 | 117 | 108 | 92.7 |  |  |
| C#Cc1ccc2c(c1)C(c1ccccn1)=NCc1c(C(=O)NC)ncn1-2 [HJ-I-40, 8-Ethynyl-N-methyl-6-(pyridine-2-yl)-4H-benzo[f]imidazo[1,5-a][1,4]diazepine-3-carboxamide] | 109 | 126 | 104 | 106 | 110 | 215 to 216 | 110 | 110 | 136 |  |  |
| C#Cc1ccc2c(c1)C(c1ccccc1F)=NCc1c(C(=O)OCCCOC(=O)c3ncn4c3CN=C(c3ccccc3F)c3cc(C#C)ccc3-4)ncn1-2 [YT-III-271, Propane-1,3-Diyl-Bis-(8-Ethynyl-6-(2-Fluorophenyl)-4H-Benzo-[1]-Imidazo-[1,5-a]-[1,4]-Diazepine-3-Carboxylate)] | 97.1 | 83.5 | 104 | 102 | 91.1 |  | 117 | 97.0 |  | clearly anxiolytic | nonsedating |
